In ChEMBL document CHEMBL2202954, “The effect of PLC-γ2 inhibitors on the growth of human tumour cells” (2012):

What was measured:
Type in all cases: functional
[1] = test system: MOLT-4; assay: Cytotoxicity against human MOLT4 cells assessed as cellular growth at 10 uM by SRB assay
[2] = test system: 786-0; assay: Cytotoxicity against human 786-0 cells assessed as cellular growth at 10 uM by SRB assay
[3] = test system: MCF7; assay: Cytotoxicity against human MCF7 cells assessed as cellular growth at 10 uM by SRB assay
[4] = test system: HOP-62; assay: Cytotoxicity against human HOP62 cells assessed as cellular growth at 10 uM by SRB assay
[5] = test system: M14; assay: Cytotoxicity against human M14 cells assessed as cellular growth at 10 uM by SRB assay
[6] = test system: SR; assay: Cytotoxicity against human SR cells assessed as cellular growth at 10 uM by SRB assay
[7] = test system: NCI-H522; assay: Cytotoxicity against human NCI-H522 cells assessed as cellular growth at 10 uM by SRB assay
[8] = test system: SF-539; assay: Cytotoxicity against human SF539 cells assessed as cellular growth at 10 uM by SRB assay
[9] = test system: IGROV-1; assay: Cytotoxicity against human IGROV1 cells assessed as cellular growth at 10 uM by SRB assay
[10] = Cytotoxicity against human NCI-ADR-RES cells assessed as cellular growth at 10 uM by SRB assay
[11] = test system: BT-549; assay: Cytotoxicity against human BT549 cells assessed as cellular growth at 10 uM by SRB assay
[12] = test system: Malme-3M; assay: Cytotoxicity against human MALME-3M cells assessed as cellular growth at 10 uM by SRB assay
[13] = test system: TK-10; assay: Cytotoxicity against human TK10 cells assessed as cellular growth at 10 uM by SRB assay
[14] = test system: OVCAR-3; assay: Cytotoxicity against human OVCAR3 cells assessed as cellular growth at 10 uM by SRB assay
[15] = test system: HCT-116; assay: Cytotoxicity against human HCT116 cells assessed as cellular growth at 10 uM by SRB assay
[16] = test system: T47D; assay: Cytotoxicity against human T47D cells assessed as cellular growth at 10 uM by SRB assay
[17] = test system: MDA-MB-435; assay: Cytotoxicity against human MDA-MB-435 cells assessed as cellular growth at 10 uM by SRB assay
[18] = test system: SNB-19; assay: Cytotoxicity against human SNB19 cells assessed as cellular growth at 10 uM by SRB assay
[19] = test system: MDA-MB-468; assay: Cytotoxicity against human MDA-MB-468 cells assessed as cellular growth at 10 uM by SRB assay
[20] = test system: SF-268; assay: Cytotoxicity against human SF268 cells assessed as cellular growth at 10 uM by SRB assay
[21] = test system: A498; assay: Cytotoxicity against human A498 cells assessed as cellular growth at 10 uM by SRB assay
[22] = test system: SK-MEL-5; assay: Cytotoxicity against human SK-MEL-5 cells assessed as cellular growth at 10 uM by SRB assay
[23] = test system: SN12C; assay: Cytotoxicity against human SN12C cells assessed as cellular growth at 10 uM by SRB assay
[24] = test system: MDA-MB-231; assay: Cytotoxicity against human MDA-MB-231 cells assessed as cellular growth at 10 uM by SRB assay
[25] = test system: HCT-15; assay: Cytotoxicity against human HCT15 cells assessed as cellular growth at 10 uM by SRB assay
[26] = test system: A549; assay: Cytotoxicity against human A549 cells assessed as cellular growth at 10 uM by SRB assay
[27] = test system: RXF 393; assay: Cytotoxicity against human RXF393 cells assessed as cellular growth at 10 uM by SRB assay
[28] = test system: SK-OV-3; assay: Cytotoxicity against human SKOV3 cells assessed as cellular growth at 10 uM by SRB assay
[29] = test system: COLO 205; assay: Cytotoxicity against human COLO205 cells assessed as cellular growth at 10 uM by SRB assay
[30] = test system: UACC-62; assay: Cytotoxicity against human UACC62 cells assessed as cellular growth at 10 uM by SRB assay
[31] = test system: NCI-H23; assay: Cytotoxicity against human NCI-H23 cells assessed as cellular growth at 10 uM by SRB assay
[32] = test system: NCI-H226; assay: Cytotoxicity against human NCI-H226 cells assessed as cellular growth at 10 uM by SRB assay
[33] = test system: SW-620; assay: Cytotoxicity against human SW620 cells assessed as cellular growth at 10 uM by SRB assay
[34] = test system: PC-3; assay: Cytotoxicity against human PC3 cells assessed as cellular growth at 10 uM by SRB assay
[35] = test system: HT-29; assay: Cytotoxicity against human HT-29 cells assessed as cellular growth at 10 uM by SRB assay
[36] = test system: LOX IMVI; assay: Cytotoxicity against human LOXIMVI cells assessed as cellular growth at 10 uM by SRB assay
[37] = test system: Hs-578T; assay: Cytotoxicity against human Hs578T cells assessed as cellular growth at 10 uM by SRB assay
[38] = test system: RPMI-8226; assay: Cytotoxicity against human RPMI8226 cells assessed as cellular growth at 10 uM by SRB assay
[39] = test system: KM12; assay: Cytotoxicity against human KM12 cells assessed as cellular growth at 10 uM by SRB assay
[40] = test system: CAKI-1; assay: Cytotoxicity against human Caki1 cells assessed as cellular growth at 10 uM by SRB assay
[41] = test system: OVCAR-8; assay: Cytotoxicity against human OVCAR8 cells assessed as cellular growth at 10 uM by SRB assay
[42] = test system: NCI-H322M; assay: Cytotoxicity against human NCI-H322M cells assessed as cellular growth at 10 uM by SRB assay
[43] = test system: ACHN; assay: Cytotoxicity against human ACHN cells assessed as cellular growth at 10 uM by SRB assay
[44] = test system: SF-295; assay: Cytotoxicity against human SF295 cells assessed as cellular growth at 10 uM by SRB assay
[45] = test system: K562; assay: Cytotoxicity against human K562 cells assessed as cellular growth at 10 uM by SRB assay
[46] = test system: SK-MEL-28; assay: Cytotoxicity against human SK-MEL-28 cells assessed as cellular growth at 10 uM by SRB assay
[47] = test system: HCC 2998; assay: Cytotoxicity against human HCC2998 cells assessed as cellular growth at 10 uM by SRB assay
[48] = test system: U-251; assay: Cytotoxicity against human U251 cells assessed as cellular growth at 10 uM by SRB assay
[49] = test system: HL-60(TB); assay: Cytotoxicity against human HL-60(TB) cells assessed as cellular growth at 10 uM by SRB assay
[50] = test system: CCRF-CEM; assay: Cytotoxicity against human CCRF-CEM cells assessed as cellular growth at 10 uM by SRB assay
[51] = test system: SNB-75; assay: Cytotoxicity against human SNB75 cells assessed as cellular growth at 10 uM by SRB assay
[52] = test system: UO-31; assay: Cytotoxicity against human UO31 cells assessed as cellular growth at 10 uM by SRB assay
[53] = test system: DU-145; assay: Cytotoxicity against human DU145 cells assessed as cellular growth at 10 uM by SRB assay
[54] = test system: SK-MEL-2; assay: Cytotoxicity against human SK-MEL-2 cells assessed as cellular growth at 10 uM by SRB assay
[55] = test system: EKVX; assay: Cytotoxicity against human EKVX cells assessed as cellular growth at 10 uM by SRB assay
[56] = test system: NCI-H460; assay: Cytotoxicity against human NCI-H460 cells assessed as cellular growth at 10 uM by SRB assay
[57] = test system: UACC-257; assay: Cytotoxicity against human UACC257 cells assessed as cellular growth at 10 uM by SRB assay
[58] = test system: OVCAR-5; assay: Cytotoxicity against human OVCAR5 cells assessed as cellular growth at 10 uM by SRB assay
[59] = test system: OVCAR-4; assay: Cytotoxicity against human OVCAR4 cells assessed as cellular growth at 10 uM by SRB assay

Work on CC1(C)CC(=O)c2cc3c(N)c(C(=O)Nc4ccc(Cl)cc4)sc3nc2C1 yielded an Activity [1] of 104%, an Activity [2] of 98.68% and an Activity [3] of 102.6%. The Activity [4] was 108.35%, the Activity [5] was 107.38% and the Activity [6] was 112.84%. For the same compound, the Activity [7] was 95.83%, the Activity [8] was 114.18% and the Activity [9] was 110.85%. It also gave an Activity [10] of 113.97%, an Activity [11] of 124.84% and an Activity [12] of 119.36%. For the same compound, the Activity [13] was 95.21%, the Activity [14] was 111.21% and the Activity [15] was 108.43%. It also gave an Activity [16] of 96.17%, an Activity [17] of 108.85% and an Activity [18] of 113.58%. For the same compound, the Activity [19] was 109.5%, the Activity [20] was 124.88% and the Activity [21] was 75.63%. It also gave an Activity [22] of 96.03%, an Activity [23] of 109.62% and an Activity [24] of 114.95%. For the same compound, the Activity [25] was 107.55%, the Activity [26] was 97.61% and the Activity [27] was 116.26%. The Activity [28] was 106.15%, the Activity [29] was 116.82% and the Activity [30] was 105.25%. The Activity [31] was 104.98%, the Activity [32] was 108.39% and the Activity [33] was 108.54%. For the same compound, the Activity [34] was 104.63%, the Activity [35] was 96.43% and the Activity [36] was 108.76%. For the same compound, the Activity [37] was 108.83%, the Activity [38] was 102.77% and the Activity [39] was 116.67%. The Activity [40] was 134.14%, the Activity [41] was 110.67% and the Activity [42] was 113.55%. The Activity [43] was 116.88%, the Activity [44] was 100.12% and the Activity [45] was 107.2%. It also gave an Activity [46] of 118.07%, an Activity [47] of 116.11% and an Activity [48] of 103.14%. The Activity [49] was 107.32%, the Activity [50] was 97.21% and the Activity [51] was 113.88%. For the same compound, the Activity [52] was 108.83%, the Activity [53] was 103.07% and the Activity [54] was 100.96%. The Activity [55] was 93.17%, the Activity [56] was 108.61% and the Activity [57] was 91.35%.

Work on O=C(NCc1ccc(Cl)cc1)c1[nH]c2ccccc2c1Cl yielded an Activity [1] of 88.19%, an Activity [2] of 106.78% and an Activity [3] of 128.42%. The Activity [4] was 101.61%, the Activity [5] was 117.92% and the Activity [7] was 103.35%. For the same compound, the Activity [8] was 118.51%, the Activity [9] was 106.79% and the Activity [10] was 95.94%. For the same compound, the Activity [11] was 104.79%, the Activity [12] was 98.93% and the Activity [13] was 163.4%. For the same compound, the Activity [14] was 97.31%, the Activity [15] was 103.25% and the Activity [16] was 96.29%. For the same compound, the Activity [17] was 103.29%, the Activity [18] was 108.55% and the Activity [19] was 106.81%. It also gave an Activity [20] of 105.1%, an Activity [21] of 76.55% and an Activity [22] of 95.97%. It also gave an Activity [23] of 99.33%, an Activity [24] of 106.69% and an Activity [25] of 103.64%. It also gave an Activity [26] of 94.27%, an Activity [27] of 104.01% and an Activity [28] of 98.27%. It also gave an Activity [29] of 104.86%, an Activity [58] of 116.56% and an Activity [30] of 96.15%. The Activity [31] was 95.58%, the Activity [32] was 89.64% and the Activity [33] was 98.38%. It also gave an Activity [34] of 87.3%, an Activity [35] of 108.03% and an Activity [36] of 95.45%. The Activity [37] was 100.36%, the Activity [38] was 90.9% and the Activity [39] was 95.16%. The Activity [40] was 91.63%, the Activity [41] was 104.08% and the Activity [42] was 113.2%. For the same compound, the Activity [43] was 104.7%, the Activity [59] was 100.82% and the Activity [44] was 94.4%. For the same compound, the Activity [45] was 102.78%, the Activity [46] was 109.03% and the Activity [47] was 104.03%. It also gave an Activity [48] of 105.3%, an Activity [49] of 109.59% and an Activity [50] of 93.68%. The Activity [51] was 94.33%, the Activity [52] was 80.6% and the Activity [53] was 105.86%. It also gave an Activity [54] of 111.13%, an Activity [55] of 83.18% and an Activity [56] of 99.81%. For the same compound, the Activity [57] was 117.15%.
